According to ChEMBL document CHEMBL1201862, “PubChem BioAssay data set” (2004):
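Where inhibition never reached the appropriate level, the endpoint shown equals the highest concentration tested. Otherwise, values were interpolated linearly from a five-concentration, 48-hour dose response in 96-well plates. Here, GI50 denotes the concentration required for 50% inhibition of growth.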 Activity calls are given as the source filed them. No stated cut-off is given here; in the data, active = GI50 up to about 1.1 µM and inactive = higher.

Assays:
Assay in all cases: DTP human tumour cell line panel, 48 h
[1] = test system: DU-145
[2] = test system: NCI-H23
[3] = test system: COLO 205
[4] = test system: CCRF-CEM
[5] = test system: HCT-116
[6] = test system: UACC-62
[7] = test system: SK-MEL-2
[8] = test system: UACC-257
[9] = test system: Malme-3M
[10] = test system: ACHN
[11] = test system: NCI-H226
[12] = test system: MDA-N
[13] = test system: 786-0
[14] = test system: HCC 2998
[15] = test system: U-251
[16] = test system: A498
[17] = test system: HOP-92
[18] = test system: MDA-MB-231
[19] = test system: SN12C
[20] = test system: M14

Structure (SMILES)	GI50 [1]	GI50 [2]	GI50 [3]	GI50 [4]	GI50 [5]	GI50 [6]	GI50 [7]	GI50 [8]	GI50 [9]	GI50 [10]	GI50 [11]	GI50 [12]	GI50 [13]	GI50 [14]	GI50 [15]	GI50 [16]	GI50 [17]	GI50 [18]	GI50 [19]	GI50 [20]
COP(=O)(OC)c1ccc(NCc2cc(O)ccc2O)cc1	36.8 µM (inactive)	34.1 µM (inactive)	27.7 µM (inactive)	18.8 µM (inactive)	24.8 µM (inactive)	19.5 µM (inactive)	46.6 µM (inactive)	22.2 µM (inactive)	18.9 µM (inactive)	18.3 µM (inactive)	38.9 µM (inactive)	26.3 µM (inactive)	25.2 µM (inactive)	23 µM (inactive)	30.6 µM (inactive)	92.7 µM (inactive)	21.4 µM (inactive)	26.9 µM (inactive)	30.3 µM (inactive)	13.8 µM (inactive)
O=C(/C=C/c1ccccc1)CSc1nc2ccc(I)cc2c(=O)n1Cc1ccccc1	15.2 µM (inactive)	18.1 µM (inactive)	17.5 µM (inactive)	11.3 µM (inactive)	19.8 µM (inactive)	35.2 µM (inactive)	28.4 µM (inactive)	19.4 µM (inactive)	23.6 µM (inactive)	7.64 µM (inactive)	12.7 µM (inactive)	30.8 µM (inactive)	14.5 µM (inactive)	19.3 µM (inactive)	26.5 µM (inactive)	14.3 µM (inactive)	5.55 µM (inactive)	28.9 µM (inactive)	9.86 µM (inactive)	55.1 µM (inactive)
COc1ccc(C(O)/C(=N/N)c2nc3ccc(Cl)cc3nc2O)cc1 (stereo not given)	> 100 µM (inactive)	> 100 µM (inactive)	> 100 µM (inactive)	> 100 µM (inactive)	> 100 µM (inactive)	> 100 µM (inactive)	> 100 µM (inactive)	> 100 µM (inactive)	> 100 µM (inactive)	> 100 µM (inactive)	> 100 µM (inactive)	> 100 µM (inactive)	> 100 µM (inactive)	> 100 µM (inactive)	> 100 µM (inactive)	> 100 µM (inactive)	63.4 µM (inactive)	> 100 µM (inactive)	> 100 µM (inactive)	> 100 µM (inactive)
Cc1cccc(/C=N\NC(=S)N2CCCCC2)n1	0.362 µM (active)	0.0689 µM (active)	< 0.01 µM (active)	< 0.01 µM (active)	< 0.01 µM (active)	0.383 µM (active)	0.612 µM (active)	< 0.01 µM (active)	0.867 µM (active)	0.159 µM (active)	0.184 µM (active)	0.306 µM (active)	0.027 µM (active)	9.77 µM (inactive)	< 0.01 µM (active)	0.0241 µM (active)	0.474 µM (active)	< 0.01 µM (active)	0.181 µM (active)	< 0.01 µM (active)
CC1/C=C/C=C/CC/C=C/C=C/C=C/C=C/C(OC2OC(C)C(O)C(N)C2O)CC2OC(CC(O)C(O)CCC(O)CC(O)CC(O)CC(=O)OC(C)C(C)C1O)CC(O)C2C(=O)O (stereo not given)	17.7 µM (inactive)	18.1 µM (inactive)	21.8 µM (inactive)	28.8 µM (inactive)	17.2 µM (inactive)	20.9 µM (inactive)	28.6 µM (inactive)	17 µM (inactive)	17.9 µM (inactive)	17.7 µM (inactive)	13.5 µM (inactive)	17.3 µM (inactive)	17 µM (inactive)	14.8 µM (inactive)	17.4 µM (inactive)	18.7 µM (inactive)	45.6 µM (inactive)	17.6 µM (inactive)	15.9 µM (inactive)	19.7 µM (inactive)
COc1cc(C=O)cc(/C=N/c2ccccn2)c1O	> 100 µM (inactive)	> 100 µM (inactive)	7.08 µM (inactive)	4.67 µM (inactive)	35.4 µM (inactive)	30 µM (inactive)	2.57 µM (inactive)	8.59 µM (inactive)	2.47 µM (inactive)	2.34 µM (inactive)	4.84 µM (inactive)	7.23 µM (inactive)	7.36 µM (inactive)	46.1 µM (inactive)	13 µM (inactive)	9.64 µM (inactive)	2.72 µM (inactive)	9.02 µM (inactive)	12.6 µM (inactive)	6.87 µM (inactive)
O=[N+]([O-])c1cc(C(F)(F)F)ccc1S(=O)(=O)N[C@@H]1CCCC[C@H]1NS(=O)(=O)c1ccc(C(F)(F)F)cc1[N+](=O)[O-]	4.22 µM (inactive)	2.28 µM (inactive)	2.78 µM (inactive)	2.72 µM (inactive)	3.43 µM (inactive)	3.81 µM (inactive)	2.82 µM (inactive)	8.07 µM (inactive)	2.49 µM (inactive)	2.7 µM (inactive)	7.52 µM (inactive)	3.63 µM (inactive)	3.47 µM (inactive)	4.28 µM (inactive)	3.37 µM (inactive)	5.43 µM (inactive)	1.98 µM (inactive)	2.77 µM (inactive)	3.45 µM (inactive)	2.75 µM (inactive)
COC12COC(=O)C1C(c1ccc3c(c1)OCO3)c1cc3c(cc1O2)OCO3 (stereo not given)	25 µM (inactive)	35.6 µM (inactive)	9.42 µM (inactive)	8.57 µM (inactive)	11.1 µM (inactive)	15.8 µM (inactive)	17.6 µM (inactive)	27.9 µM (inactive)	40.7 µM (inactive)	29.1 µM (inactive)	34.3 µM (inactive)	2.69 µM (inactive)	25.1 µM (inactive)	15.6 µM (inactive)	32 µM (inactive)	29.2 µM (inactive)	37.8 µM (inactive)	25.4 µM (inactive)	40 µM (inactive)	13 µM (inactive)
O=C(NC(=O)c1ccccc1[N+](=O)[O-])Nc1ccc(Oc2ncc(Br)cn2)c(Cl)c1	0.0318 µM (active)	0.0389 µM (active)	0.046 µM (active)	0.0284 µM (active)	0.0255 µM (active)	0.019 µM (active)	0.0213 µM (active)	0.0237 µM (active)	0.0138 µM (active)	0.0508 µM (active)	0.0148 µM (active)	0.00857 µM (active)	0.0215 µM (active)	0.0875 µM (active)	0.0427 µM (active)	0.0225 µM (active)	0.0495 µM (active)	0.0469 µM (active)	0.0398 µM (active)	< 0.016 µM (active)
C/C(=N\Nc1nc2ccccc2[nH]1)c1cccc[n+]1[O-]	> 100 µM (inactive)	> 100 µM (inactive)	65.8 µM (inactive)	> 100 µM (inactive)	88.3 µM (inactive)	87.1 µM (inactive)	> 100 µM (inactive)	> 100 µM (inactive)	52.7 µM (inactive)	71 µM (inactive)	45.4 µM (inactive)	> 100 µM (inactive)	> 100 µM (inactive)	6.55 µM (inactive)	75 µM (inactive)	> 100 µM (inactive)	33.9 µM (inactive)	> 100 µM (inactive)	> 100 µM (inactive)	> 100 µM (inactive)
CNC(=O)c1ccc(C(=O)NCCCCCN(O)C(=O)CCC(=O)NCCCCCN(O)C(=O)CCC(=O)NCCCCCN(O)C(C)=O)c(O)c1O	55.1 µM (inactive)	65.9 µM (inactive)	27.1 µM (inactive)	5 µM (inactive)	32.9 µM (inactive)	36.1 µM (inactive)	95.7 µM (inactive)	68.5 µM (inactive)	90.8 µM (inactive)	32.8 µM (inactive)	> 100 µM (inactive)	> 100 µM (inactive)	69.3 µM (inactive)	> 100 µM (inactive)	33.9 µM (inactive)	> 100 µM (inactive)	37.4 µM (inactive)	53.7 µM (inactive)	94.6 µM (inactive)	59.8 µM (inactive)
FC(F)(Sc1ccccc1)c1nc2ccccc2o1	67.8 µM (inactive)	91 µM (inactive)	> 100 µM (inactive)	19.4 µM (inactive)	28.6 µM (inactive)	67.8 µM (inactive)	67.8 µM (inactive)	> 100 µM (inactive)	51.1 µM (inactive)	47.4 µM (inactive)	46.9 µM (inactive)	82.6 µM (inactive)	91.6 µM (inactive)	43.3 µM (inactive)	21.9 µM (inactive)	92.7 µM (inactive)	12.5 µM (inactive)	> 100 µM (inactive)	74.5 µM (inactive)	68.9 µM (inactive)
O=C1C2=Cc3ccccc3OC2(O)Oc2cc(O)cc(O)c21 (stereo not given)	> 100 µM (inactive)	59.2 µM (inactive)	> 100 µM (inactive)	57.4 µM (inactive)	> 100 µM (inactive)	71.8 µM (inactive)	> 100 µM (inactive)	> 100 µM (inactive)	> 100 µM (inactive)	> 100 µM (inactive)	> 100 µM (inactive)	> 100 µM (inactive)	> 100 µM (inactive)	> 100 µM (inactive)	> 100 µM (inactive)	> 100 µM (inactive)	> 100 µM (inactive)	> 100 µM (inactive)	> 100 µM (inactive)	> 100 µM (inactive)
N=C(N)N/N=C/c1c(Cl)nc2sccn12	44.4 µM (inactive)	46.6 µM (inactive)	14.9 µM (inactive)	21.1 µM (inactive)	15.3 µM (inactive)	31.8 µM (inactive)	> 10 µM (inactive)	23.4 µM (inactive)	23.3 µM (inactive)	16.8 µM (inactive)	25.4 µM (inactive)	30.1 µM (inactive)	17.1 µM (inactive)	16.9 µM (inactive)	29.9 µM (inactive)	28.2 µM (inactive)	21.1 µM (inactive)	33.6 µM (inactive)	38.5 µM (inactive)	15.5 µM (inactive)
